Results taken from PMC12389196, “Novel Indole-Based Sulfonylhydrazones as Potential Anti-Breast Cancer Agents: Synthesis, In Vitro Evaluation, ADME, and QSAR Studies” (Pharmaceuticals, 2025).
“And” between values parts separate entries of the source, which are not always exact repeats. Identical values can stand only once.

Legend:
[1] = tested on: MCF-7 (ER-positive breast adenocarcinoma) cells; design: method as in PMID 36903304; settings: previous study ref 48; cited from earlier work
[2] = tested on: MCF-7 (ER-positive breast adenocarcinoma) cells; assay: MTT assay, antiproliferative activity on MCF-7 cells; assay type: cell-based, human; settings: for IC50: MTT, 72 h; for SI MCF-7 (selectivity index): SI = IC50 on Neuro-2a/IC50 on MCF-7
Experimental: (§1) The antiproliferative activity of the novel indolyl-methylidene-substituted phenylsulfonylhydrazones (3a–j) and the bis-indole hydrazine derivative (4) was evaluated against two breast cancer cell lines: MCF-7 and MDA-MB-231. The MCF-7 cell line, derived from human breast adenocarcinoma, expresses estrogen receptor alpha (ER-α). In contrast, the MDA-MB-231 cell line represents triple-negative breast cancer (TNBC) and lacks expression of estrogen, progesterone, and HER2 receptors. Antiproliferative activity was expressed as IC50, the concentration (in μM) required to inhibit 50% of cell growth, and ligand efficiency (LE), calculated as LE = −log(IC50)/number of heavy atoms. To assess the selectivity index (SI = IC50 on Neuro-2a/IC50 on breast cancer cell line), the compounds were also tested on Neuro-2a cells, a mouse neuroblastoma cell line derived from brain tissue.
(§2) The in vitro antineoplastic activity of the synthesized compounds was tested against human breast cancer cell lines, comprising the triple-negative MDA-MB-231 and the […] MCF-7. Neuroblastoma mouse cells Neuro-2a were used as a non-breast cancer cell line reference. All cell lines were obtained from the German Collection of Microorganisms and Cell Cultures (DSMZ, Braunschweig, Germany) and cultivated and maintained in accordance with the supplier’s protocols. The cells were cultured in RPMI 1640 growth medium (Gibco, Thermo Fisher Scientific, Waltham, MA, USA), supplemented with 10% fetal bovine serum (FBS; Gibco, Thermo Fisher Scientific, Waltham, MA, USA) and 5% L-glutamine (Gibco, Thermo Fisher Scientific, Waltham, MA, USA), and incubated at standard conditions of 37 °C in a humidified environment with 5% CO2.
(§3) The cytostatic activity of the tested compounds was evaluated using the Mosmann MTT assay—a well-established colorimetric method for assessing cell viability. This assay measures mitochondrial enzyme activity by reducing the yellow dye MTT (3-(4,5-dimethylthiazol-2-yl)-2,5-diphenyltetrazolium bromide) into violet formazan crystals. The exponentially growing cells were harvested and seeded into 96-well plates at a density of 1.5 × 10^5 cells per well in 100 μL of medium and incubated for 24 h. The cell cultures were then treated with various concentrations (200–6.25 μM) of the tested compounds and incubated for 72 h. Cell viability was quantified as a percentage (%) relative to the untreated control, which was set at 100% viability.
(§4) The experimental data were analyzed using nonlinear regression in GraphPad Prism® software, version 9.0. Semi-logarithmic dose–response curves were generated, and the half-maximal inhibitory concentrations (IC50) of the tested compounds were calculated for each tumor cell line.

[3] = tested on: MDA-MB-231 (triple-negative breast cancer) cells; assay: MTT assay, antiproliferative activity on MDA-MB-231 cells; assay type: cell-based, human; settings: for IC50: MTT, 72 h; for SI MDA-MB-231 (selectivity index): SI = IC50 on Neuro-2a/IC50 on MDA-MB-231
Experimental: as §1, §2, §3, §4

[4] = tested on: Neuro-2a (mouse neuroblastoma) cells; assay: MTT assay on Neuro-2a reference cells; assay type: cell-based; settings: N2a, 72 h
Experimental: as §1, §2, §3, §4

| Compound | IC50 ([2]; Homo sapiens, MCF7, 72 h) [µM] | IC50 ([3]; Homo sapiens, MDA-MB-231, 72 h) [µM] | IC50 [4] [µM] | selectivity index MCF-7, earlier series of arylsulfonylhydrazones [1] | SI MCF-7 (selectivity index) [2] | SI MDA-MB-231 (selectivity index) [3] | IC50 [2] [µM] | IC50 [3] [µM] |
| --- | --- | --- | --- | --- | --- | --- | --- | --- |
| CC(=O)n1cc(C=NNS(=O)(=O)c2ccc(C)cc2)c2ccccc21 [1d, N′-[(1-acetyl-1H-indol-3-yl)methylidene]-4-methylbenzenesulfonohydrazide] | – | – | – | ≤ 46 | – | – | – | – |
| Cc1ccc(S(=O)(=O)N/N=C/c2c[nH]c3ccc(Br)cc23)cc1 [3e, N′-[(E)-(5-Bromo-1H-indol-3-yl)methylidene]-4-methylbenzene-1-sulfonohydrazide] | 29.6 ± 5.1 | 18.7 ± 2.7 | 34.8 ± 5.7 | – | 1.176 | 1.861 | – | – |
| COc1ccc(S(=O)(=O)N/N=C/c2c[nH]c3ccc(Cl)cc23)cc1 [3g, N′-[(E)-(5-Chloro-1H-indol-3-yl)methylidene]-4-methoxybenzene-1-sulfonohydrazide] | 12.7 ± 2.8 | 14.7 ± 1.8 | 26.2 ± 3.5 | – | 2.063 | 1.782 | – | – |
| Cc1cc(C)c(S(=O)(=O)N/N=C/c2c[nH]c3ccc(Cl)cc23)c(C)c1 [3h, N′-[(E)-(5-Chloro-1H-indol-3-yl)methylidene]-2,4,6-trimethylbenzene-1-sulfonohydrazide] | 15.2 ± 2.1 | 18.1 ± 2.5 | 24 ± 1.9 | – | 1.579 | 1.326 | – | – |
| Cc1ccc(S(=O)(=O)N/N=C/c2c[nH]c3ccc(Cl)cc23)c(C)c1 [3i, N′-[(E)-(5-Chloro-1H-indol-3-yl)methylidene]-2,4-dimethylbenzene-1-sulfonohydrazide] | 12.4 ± 3.2 | < 10 | 15.9 ± 1.6 | – | 1.282 | 1.674 | – | 9.5 ± 1.5 |
| N.N.[Cl][Pt][Cl] [Cisplatin, reference compound] | – | – | – | – | – | – | 50.3 ± 6.5 | 63.4 ± 7.2 |
| Clc1ccc2[nH]cc(/C=N/N=C/c3c[nH]c4ccc(Cl)cc34)c2c1 [compound 4, 3,3′-[(1E,2E)-hydrazine-1,2-diylidenedi(E)methylylidene]bis(5-chloro-1H-indole)] | 21.4 ± 4.9 | 66 ± 7.4 | 53.7 ± 3.1 | – | 2.509 | 0.814 | – | – |
| N′-[(1-acetyl-1H-indol-3-yl)methylidene]benzenesulfonohydrazide [1c] | – | – | – | up to 40 | – | – | – | – |

Now from value to compound, other results behind:

| IC50 ([2]; Homo sapiens, MCF7, 72 h) [µM] | IC50 ([3]; Homo sapiens, MDA-MB-231, 72 h) [µM] | IC50 [4] [µM] | Compound | selectivity index MCF-7, earlier series of arylsulfonylhydrazones [1] | SI MCF-7 (selectivity index) [2] | SI MDA-MB-231 (selectivity index) [3] | IC50 [2] [µM] | IC50 [3] [µM] |
| --- | --- | --- | --- | --- | --- | --- | --- | --- |
| 4.3 ± 1.3 | 20.1 ± 3.4 | 58 ± 8.2 | COc1ccc(S(=O)(=O)N/N=C/c2cn(C(C)=O)c3ccccc23)cc1 [3a, N′-[(E)-(1-Acetyl-1H-indol-3-yl)methylidene]-4-methoxybenzene-1-sulfonohydrazide] | – | 13.5 and 13.488 | 2.886 | – | – |
| 4 ± 0.9 | 16.3 ± 4.1 | 83.9 ± 9.4 | CC(=O)n1cc(/C=N/NS(=O)(=O)c2c(C)cc(C)cc2C)c2ccccc21 [3b, N′-[(E)-(1-Acetyl-1H-indol-3-yl)methylidene]-2,4,6-trimethylbenzene-1-sulfonohydrazide] | – | 20.975 | 5.147 | – | – |
| 5.2 ± 1 | 17.7 ± 2.3 | 18.6 ± 3.9 | COc1ccc(S(=O)(=O)N/N=C/c2c[nH]c3ccc(Br)cc23)cc1 [3c, N′-[(E)-(5-Bromo-1H-indol-3-yl)methylidene]-4-methoxybenzene-1-sulfonohydrazide] | – | 3.577 | 1.051 | – | – |
| 4.2 ± 0.7 | 19.9 ± 1.6 | 21 ± 2.1 | Cc1cc(C)c(S(=O)(=O)N/N=C/c2c[nH]c3ccc(Br)cc23)c(C)c1 [3d, N′-[(E)-(5-Bromo-1H-indol-3-yl)methylidene]-2,4,6-trimethylbenzene-1-sulfonohydrazide] | – | 5.000 | 1.055 | – | – |
| < 6 | – | 10.9 ± 1.8 | O=S(=O)(N/N=C/c1c[nH]c2ccc(Br)cc12)c1ccccc1 [3f, N′-[(E)-(5-Bromo-1H-indol-3-yl)methylidene]benzene-1-sulfonohydrazide] | – | 1.847 | 2.319 | 5.9 ± 1.4 | – |
| 11.5 ± 2.3 | 13.3 ± 2.2 | 35.5 ± 5.3 | Cc1ccc(S(=O)(=O)N/N=C/c2c[nH]c3ccc(Cl)cc23)cc1C [3j, N′-[(E)-(5-Chloro-1H-indol-3-yl)methylidene]-3,4-dimethylbenzene-1-sulfonohydrazide] | – | 3.087 | 2.669 | – | – |
